Experimental data published in US4874856A, “3-(substituted)propenyl-7-(aminothiazolylacetamido) ceph-3-em-4-carboxylic acids and esters thereof” (Bristol-Myers Company, priority 1987, dated 1989).
Read-outs that look alike come from different tables or passages of the source.

What was measured:
Assay type in all cases: cell-based
[1] = tested on: Penicillin(PC)sensitive S. aureus; experiment: In vitro MIC, two-fold serial agar dilution in Mueller-Hinton agar, Gp-Ia strains; conditions: Staphylococcus aureus; GpIa, 5 strains; read-out: Geometric mean of MIC, GpIa
Description: (§1) The in vitro antibacterial activity of the parent cephalosporanic acids of Formula I wherein R^4 is hydrogen is shown in Table 1 in terms of geometric mean of the Minimum Inhibitory Concentrations (MIC's) which were determined by the two-fold serial agar dilution method in Mueller-Hinton agar against 25 strains of test organisms in five groups.
Gp-Ia: Penicillin(PC)sensitive S. aureus

[2] = tested on: M. morcanii (1), E. cloacae (2) and S. marcescens (2); experiment: In vitro MIC, two-fold serial agar dilution in Mueller-Hinton agar, GnII strains; conditions: Enterobacter cloacae, read-out: Geometric mean of MIC, GnII
Description: as §1
GnII: M. morcanii (1), E. cloacae (2) and S. marcescens (2)

[3] = tested on: CETresistant E. coli (3) and K. pneumoniae (2); experiment: In vitro MIC, two-fold serial agar dilution in Mueller-Hinton agar, GnIb strains; conditions: Escherichia coli, 5 strains, read-out: Geometric mean of MIC, GnIb
Description: as §1
GnIb: CETresistant E. coli (3) and K. pneumoniae (2)

[4] = tested on: clinically important pathogens; experiment: Comparison of in vitro antibacterial activities of Compound 29 and FK-482 (Table 6); conditions: Thirty-seven organisms
Text: (§2) Table 6 is a comparison of the in vitro antibacterial activities of Compound 29 and the vinyl homolog thereof FK-482 against clinically important pathogens. Thirty-seven organisms were more than 4-fold more susceptible to Compound 29 than to FK-482. FK-482 has the following formula and is described by Takaya, et al. in U.S. Pat. No. 4,559,334 patented Dec. 17, 1985 (filed Oct. 20, 1983). [drawing 14]
(§3) Mueller-Hinton agar Inoculum size; 10^6 cells/ml

Proteus mirabilis = experiment: In vitro MIC, Mueller-Hinton agar, inoculum 10^6 cells/ml
Text: as §2
(§4) *; Geometric mean of MIC (μg/ml)
as §3

Proteus vulgaris = experiment: as above
Text: as §2, §4, §3

Morganella morganii = experiment: as above
Text: as §2, §4, §3

Enterobacter cloacae = experiment: as above
Text: as §2, §4, §3

Serratia marcescens = experiment: as above
Text: as §2, §4, §3

Serratia species = experiment: as above
Text: as §2, §4, §3

Enterobacter aerogenes = experiment: as above; conditions: Klebsiella aerogenes
Text: as §2, §4, §3

Providencia rettgeri = experiment: as above
Text: as §2, §4, §3

Citrobacter freundii = experiment: as above
Text: as §2, §4, §3

C/C=C\C1=C(C(=O)O)N2C(=O)[C@@H](NC(=O)/C(=N\O)c3csc(N)n3)[C@H]2SC1 [Compound 29, 7β-[(Z)-2-(2-aminothiazol-4-yl)-2-(hydroxyimino)acetamido]-3-[(Z)-prop-1-en-1-yl]-3-cephem-4-carboxylic acid]
6.3 µg/mL: MIC [2] | MIC (Morganella morganii; (GM) of the Morganella morganii strains, read-out: Geometric mean of MIC) | MIC (Enterobacter aerogenes; strain A20958, read-out: MIC) | MIC (Enterobacter aerogenes; strain A20966, read-out: MIC) | MIC (Enterobacter aerogenes; strain A20994, read-out: MIC) | MIC (Enterobacter aerogenes; strain A21039, read-out: MIC) | MIC (Enterobacter aerogenes; strain A21120, read-out: MIC) | MIC (Enterobacter aerogenes; strain A21130-1, read-out: MIC) | MIC (Enterobacter aerogenes; strain A21158, read-out: MIC)
< 0.0063 µg/mL: MIC (Providencia rettgeri; IFO3850, strain IFO 3850 MS-1, read-out: MIC) | MIC (Providencia rettgeri; strain A 9637, read-out: MIC) | MIC (Providencia rettgeri; strain A15167 (first line), read-out: MIC) | MIC (Providencia rettgeri; strain A20920, read-out: MIC) | MIC (Providencia rettgeri; strain A20921, read-out: MIC)
> 50 µg/mL: MIC (Proteus vulgaris; strain AKH-26, read-out: MIC) | MIC (Morganella morganii; strain A 9636, read-out: MIC) | MIC (Enterobacter cloacae; strain A 9659, read-out: MIC) | MIC (Enterobacter cloacae; strain A20344, read-out: MIC) | MIC (Enterobacter cloacae; strain A22551, read-out: MIC) | MIC (Serratia marcescens; strain A20333, read-out: MIC) | MIC (Serratia marcescens; strain A20334, read-out: MIC) | MIC (Serratia marcescens; strain A20459, read-out: MIC) | MIC (Serratia marcescens; strain A20461, read-out: MIC) | MIC (Serratia species; strain 6-920, read-out: MIC) | MIC (Serratia species; strain 7-255, read-out: MIC) | MIC (Serratia species; strain 7-454, read-out: MIC) | MIC (Serratia species; strain 7-2322, read-out: MIC) | MIC (Serratia species; strain 8-185, read-out: MIC) | MIC (Serratia species; strain 8-785, read-out: MIC) | MIC (Serratia species; strain 9-50, read-out: MIC) | MIC (Serratia species; strain 9-690, read-out: MIC) | MIC (Enterobacter aerogenes; strain A20940, read-out: MIC) | MIC (Enterobacter aerogenes; strain A20985, read-out: MIC) | MIC (Enterobacter aerogenes; strain A21036, read-out: MIC) | MIC (Citrobacter freundii; strain A21312, read-out: MIC)
0.8 µg/mL: MIC (Enterobacter cloacae; strain A20650, read-out: MIC) | MIC (Enterobacter aerogenes; strain A20943, read-out: MIC) | MIC (Enterobacter aerogenes; strain A20996, read-out: MIC) | MIC (Enterobacter aerogenes; strain A21038, read-out: MIC) | MIC (Enterobacter aerogenes; strain A21131, read-out: MIC) | MIC (Enterobacter aerogenes; strain A21152, read-out: MIC) | MIC (Providencia rettgeri; strain A20915, read-out: MIC) | MIC (Citrobacter freundii; strain A22142, read-out: MIC) | MIC (Citrobacter freundii; strain A22160, read-out: MIC) | MIC (Citrobacter freundii; strain A22161, read-out: MIC) | MIC (Citrobacter freundii; strain A22166, read-out: MIC) | MIC (Citrobacter freundii; strain A22175, read-out: MIC) | MIC (Citrobacter freundii; strain A22176, read-out: MIC)
0.1 µg/mL: MIC (Proteus mirabilis; IFO3849, strain IFO 3849 MS-1, read-out: MIC) | MIC (Proteus mirabilis; strain A 9554, read-out: MIC) | MIC (Proteus mirabilis; strain A 9716, read-out: MIC) | MIC (Proteus mirabilis; strain A20342, read-out: MIC) | MIC (Proteus mirabilis; strain A20454, read-out: MIC) | MIC (Proteus mirabilis; strain A21222, read-out: MIC) | MIC (Proteus vulgaris; strain A 9436, read-out: MIC) | MIC (Proteus vulgaris; strain HX-19 MS-1, read-out: MIC)
0.025 µg/mL: MIC (Providencia rettgeri; strain A21205, read-out: MIC) | MIC (Providencia rettgeri; strain A21270, read-out: MIC)
44 µg/mL: MIC (Serratia species; (GM) of the Serratia species strains, read-out: Geometric mean of MIC)
0.35 µg/mL: MIC [3]
50 µg/mL: MIC (Enterobacter cloacae; strain A 9655, read-out: MIC) | MIC (Enterobacter aerogenes; strain A21118, read-out: MIC)
0.05 µg/mL: MIC (Proteus mirabilis; strain A 9702, read-out: MIC) | MIC (Proteus mirabilis; strain A20119, read-out: MIC)
0.013 µg/mL: MIC (Providencia rettgeri; strain A15167 (second line), read-out: MIC)
more than 4 fold: more susceptible to Compound 29 than to FK-482 [4]
0.2 µg/mL: MIC [1] | MIC (Proteus vulgaris; strain OX-19 MS-1, read-out: MIC)
25 µg/mL: MIC (Serratia species; strain 8-513, read-out: MIC) | MIC (Serratia species; strain 8-1537, read-out: MIC) | MIC (Enterobacter aerogenes; strain A21044, read-out: MIC)
1.6 µg/mL: MIC (Proteus vulgaris; strain A 9699, read-out: MIC) | MIC (Morganella morganii; IFO3843, strain IFO 3843 MS-1, read-out: MIC) | MIC (Morganella morganii; strain A20455, read-out: MIC) | MIC (Serratia marcescens; strain A20019, read-out: MIC) | MIC (Serratia marcescens; strain A20335, read-out: MIC) | MIC (Enterobacter aerogenes; strain A20941, read-out: MIC) | MIC (Enterobacter aerogenes; strain A20971, read-out: MIC) | MIC (Citrobacter freundii; strain A22140, read-out: MIC) | MIC (Citrobacter freundii; strain A22141, read-out: MIC)
17 µg/mL: MIC (Enterobacter cloacae; (GM) of the Enterobacter cloacae strains, read-out: Geometric mean of MIC)
4.9 µg/mL: MIC (Enterobacter aerogenes; (GM) of the Enterobacter aerogenes strains, read-out: Geometric mean of MIC)
12.5 µg/mL: MIC (Serratia marcescens; strain A20460, read-out: MIC) | MIC (Enterobacter aerogenes; strain A21043, read-out: MIC)
0.084 µg/mL: MIC (Proteus mirabilis; (GM) of the Proteus mirabilis strains, read-out: Geometric mean of MIC)
1.7 µg/mL: MIC (Citrobacter freundii; (GM) of the Citrobacter freundii strains, read-out: Geometric mean of MIC)
0.015 µg/mL: MIC (Providencia rettgeri; (GM) of the Providencia rettgeri strains, read-out: Geometric mean of MIC)
0.4 µg/mL: MIC (Enterobacter aerogenes; strain A21037, read-out: MIC) | MIC (Providencia rettgeri; strain A20645, read-out: MIC)
13 µg/mL: MIC (Serratia marcescens; (GM) of the Serratia marcescens strains, read-out: Geometric mean of MIC)
1 µg/mL: MIC (Proteus vulgaris; (GM) of the Proteus vulgaris strains, read-out: Geometric mean of MIC)
3.1 µg/mL: MIC (Proteus vulgaris; strain A 9526, read-out: MIC) | MIC (Enterobacter cloacae; strain A20364, read-out: MIC) | MIC (Enterobacter cloacae; strain A20464, read-out: MIC) | MIC (Serratia marcescens; strain A20222, read-out: MIC) | MIC (Serratia marcescens; strain A20336, read-out: MIC) | MIC (Serratia marcescens; strain A20442, read-out: MIC) | MIC (Serratia species; strain 6-330, read-out: MIC) | MIC (Serratia species; strain 6-427, read-out: MIC) | MIC (Enterobacter aerogenes; strain A20961, read-out: MIC) | MIC (Enterobacter aerogenes; strain A21013, read-out: MIC) | MIC (Enterobacter aerogenes; strain A21155, read-out: MIC) | MIC (Enterobacter aerogenes; strain A21503, read-out: MIC) | MIC (Citrobacter freundii; strain A22177, read-out: MIC)
